Test results: article PMC5559489 (Scientific Reports, 2017)

Columns and labels:
[1] = molecular target: seasonal influenza A(H3N2) virus neuraminidase (NA) (Influenza A virus, UniProt V9SU56); format: biochemical
[2] = molecular target: seasonal influenza B virus neuraminidase (NA) (Influenza B virus, UniProt C0LT34); format: biochemical

Compound: CCOC(=O)C1=C[C@@H](OC(CC)CC)[C@H](NC(C)=O)[C@@H](N)C1 [oseltamivir, Oseltamivir]
- susceptibility to oseltamivir (WHO definition) [1]: sensitive
- susceptibility to oseltamivir (WHO definition) [2]: sensitive
